Experimental data published in PubChem BioAssay AID1259407 (Chemical Carcinogenesis Research Information System (CCRIS), 2018).
Entries after “also recorded” stand apart in the source; their conditions may differ. Calls of active or inactive are those of the source. No rule for the calls is given here.

Test system: CCRIS mutagenicity, Ames/micronucleus/aberration tests
Test: CCRIS mutagenicity studies

SMILES: O=C(c1ccccc1)C(O)c1ccccc1 (stereo not drawn)
- mutagenic call (End Point: IN VITRO CHROMOSOMAL ABERRATIONS, Test System: CHL/IU CELLS, Metabolic Activation: RAT, LIVER, S-9, PHENOBARBITAL AND 5,6-BENZOFLAVONE): active; positive (structural changes)
- mutagenic call (End Point: IN VITRO CHROMOSOMAL ABERRATIONS, Test System: CHO CELLS, Metabolic Activation: NONE): active; positive; weak response; precipitation occurred at 500 ug/ml; also recorded: inactive; negative; precipitation occurred at 500 ug/ml
- mutagenic call (End Point: IN VITRO MICRONUCLEUS, Test System: CHL/IU CELLS, Metabolic Activation: RAT, LIVER, S-9, PHENOBARBITAL AND 5,6-BENZOFLAVONE): active; positive
- mutagenic call (End Point: IN VIVO MICRONUCLEUS, Test System: BLOOD ERYTHROCYTES, Species: MOUSE, Strain/Sex: CD-1/MALE, Route: ORAL): inactive; negative
- mutagenic call (Test System: AMES SALMONELLA TYPHIMURIUM, Strain/Indicator: TA97, Metabolic Activation: HAMSTER LIVER S-9, AROCLOR 1254 (10%), Method: PREINCUBATION): inactive; negative
- mutagenic call (Test System: AMES SALMONELLA TYPHIMURIUM, Strain/Indicator: TA97, Metabolic Activation: NONE, Method: PREINCUBATION): inactive; negative
- mutagenic call (Test System: AMES SALMONELLA TYPHIMURIUM, Strain/Indicator: TA97, Metabolic Activation: NONE, Method: STANDARD PLATE): inactive; negative
- mutagenic call (Test System: AMES SALMONELLA TYPHIMURIUM, Strain/Indicator: TA97, Metabolic Activation: RAT LIVER S-9, AROCLOR 1254 (10%), Method: PREINCUBATION): inactive; negative
- mutagenic call (Test System: AMES SALMONELLA TYPHIMURIUM, Strain/Indicator: TA97, Metabolic Activation: S-9, Method: STANDARD PLATE): inactive; negative
- mutagenic call (Test System: AMES SALMONELLA TYPHIMURIUM, Strain/Indicator: TA98, Metabolic Activation: HAMSTER LIVER S-9, AROCLOR 1254 (10%), Method: PREINCUBATION): inactive; negative
- mutagenic call (Test System: AMES SALMONELLA TYPHIMURIUM, Strain/Indicator: TA98, Metabolic Activation: NONE, Method: PREINCUBATION): inactive; negative
- mutagenic call (Test System: AMES SALMONELLA TYPHIMURIUM, Strain/Indicator: TA98, Metabolic Activation: NONE, Method: STANDARD PLATE): inactive; negative
- mutagenic call (Test System: AMES SALMONELLA TYPHIMURIUM, Strain/Indicator: TA98, Metabolic Activation: RAT LIVER S-9, AROCLOR 1254 (10%), Method: PREINCUBATION): inactive; negative
- mutagenic call (Test System: AMES SALMONELLA TYPHIMURIUM, Strain/Indicator: TA98, Metabolic Activation: RAT, LIVER, S-9, AROCLOR 1254, Method: STANDARD PLATE): inactive; negative
- mutagenic call (Test System: AMES SALMONELLA TYPHIMURIUM, Strain/Indicator: TA98, Metabolic Activation: S-9, Method: STANDARD PLATE): inactive; negative
- mutagenic call (Test System: AMES SALMONELLA TYPHIMURIUM, Strain/Indicator: TA100, Metabolic Activation: HAMSTER LIVER S-9, AROCLOR 1254 (10%), Method: PREINCUBATION): inactive; negative
- mutagenic call (Test System: AMES SALMONELLA TYPHIMURIUM, Strain/Indicator: TA100, Metabolic Activation: NONE, Method: PREINCUBATION): inactive; negative
- mutagenic call (Test System: AMES SALMONELLA TYPHIMURIUM, Strain/Indicator: TA100, Metabolic Activation: NONE, Method: STANDARD PLATE): inactive; negative
- mutagenic call (Test System: AMES SALMONELLA TYPHIMURIUM, Strain/Indicator: TA100, Metabolic Activation: RAT LIVER S-9 AROCLOR 1254 (10%), Method: PREINCUBATION): inactive; negative
- mutagenic call (Test System: AMES SALMONELLA TYPHIMURIUM, Strain/Indicator: TA100, Metabolic Activation: RAT, LIVER, S-9, AROCLOR 1254, Method: STANDARD PLATE): inactive; negative
- mutagenic call (Test System: AMES SALMONELLA TYPHIMURIUM, Strain/Indicator: TA100, Metabolic Activation: S-9, Method: STANDARD PLATE): inactive; negative
- mutagenic call (Test System: AMES SALMONELLA TYPHIMURIUM, Strain/Indicator: TA102, Metabolic Activation: NONE, Method: STANDARD PLATE): inactive; negative
- mutagenic call (Test System: AMES SALMONELLA TYPHIMURIUM, Strain/Indicator: TA102, Metabolic Activation: RAT LIVER S-9, PHENOBARBITAL AND 5,6-BENZOFLAVONE, Method: STANDARD PLATE): inactive; negative
- mutagenic call (Test System: AMES SALMONELLA TYPHIMURIUM, Strain/Indicator: TA102, Metabolic Activation: RAT, LIVER, S-9, AROCLOR 1254, Method: STANDARD PLATE): inactive; negative
- mutagenic call (Test System: AMES SALMONELLA TYPHIMURIUM, Strain/Indicator: TA102, Metabolic Activation: S-9, Method: STANDARD PLATE): inactive; negative
- mutagenic call (Test System: AMES SALMONELLA TYPHIMURIUM, Strain/Indicator: TA1535, Metabolic Activation: HAMSTER LIVER S-9, AROCLOR 1254 (5%), Method: PREINCUBATION): inactive; negative
- mutagenic call (Test System: AMES SALMONELLA TYPHIMURIUM, Strain/Indicator: TA1535, Metabolic Activation: HAMSTER LIVER S-9, AROCLOR 1254 (10%), Method: PREINCUBATION): inactive; negative
- mutagenic call (Test System: AMES SALMONELLA TYPHIMURIUM, Strain/Indicator: TA1535, Metabolic Activation: NONE, Method: PREINCUBATION): active; positive
